Test results reported in ChEMBL document CHEMBL1201862, “PubChem BioAssay data set” (2004).
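Each compound was tested at five concentrations against cells in 96-well plates for 48 hours. The concentration for 50% growth inhibition is given as GI50.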 The source made the active and inactive calls. No stated cut-off is given here; in the data, active = GI50 up to about 1.1 µM and inactive = higher.

Tests used:
Experiment in all cases: growth of human tumour cells (NCI), 48 h
[1] = test system: CCRF-CEM
[2] = test system: HCC 2998
[3] = test system: HOP-62
[4] = test system: IGROV-1
[5] = test system: MOLT-4
[6] = test system: Malme-3M
[7] = test system: NCI-H23
[8] = test system: NCI-H522
[9] = test system: OVCAR-4
[10] = test system: RPMI-8226
[11] = test system: RXF 393
[12] = test system: SF-295
[13] = test system: SK-MEL-2
[14] = test system: SK-OV-3
[15] = test system: U-251
[16] = test system: UACC-257
[17] = test system: CAKI-1

Measured: GI50

O=C1C=CC2(C=C1)CCNC1=C2C(=O)c2ccccc2C1=O
inactive: [1] > 100 µM | [2] > 100 µM | [3] > 100 µM | [4] > 100 µM | [5] > 100 µM | [6] > 100 µM | [7] > 100 µM | [8] > 100 µM | [9] > 100 µM | [10] > 100 µM | [11] > 100 µM | [12] > 100 µM | [13] > 100 µM | [14] > 100 µM | [15] > 100 µM | [16] 50 µM

O=C(O)/C=C\C(=O)Nc1ccc(S(=O)(=O)c2ccc(NC(=O)/C=C\C(=O)O)cc2)cc1
inactive: [17] > 100 µM | [1] > 100 µM | [3] > 100 µM | [4] > 100 µM | [5] > 100 µM | [6] > 100 µM | [7] > 100 µM | [8] > 100 µM | [9] > 100 µM | [10] > 100 µM | [12] > 100 µM | [13] > 100 µM | [14] > 100 µM | [15] > 100 µM | [16] > 100 µM

N#CC(NNC(=O)c1ccccc1O)c1cccc(O)c1 (centres undefined)
inactive: [17] 5.43 µM | [1] 4.66 µM | [3] 10.6 µM | [4] 3.4 µM | [5] 58.2 µM | [6] 12.9 µM | [7] 2.9 µM | [8] 9.73 µM | [9] 3.36 µM | [10] > 100 µM | [11] 1.78 µM | [12] 3.67 µM | [13] 5.7 µM | [14] 3.93 µM | [15] 2.99 µM | [16] 10.1 µM

c1cc(-c2cn3ccsc3n2)ccn1
inactive: [17] > 91 µM | [1] > 41.8 µM | [2] > 100 µM | [3] > 100 µM | [4] > 100 µM | [5] > 100 µM | [6] > 100 µM | [7] > 100 µM | [8] > 100 µM | [9] > 65.8 µM | [10] > 54.5 µM | [12] > 100 µM | [13] > 100 µM | [14] > 100 µM | [15] > 100 µM | [16] > 100 µM

O=C(N/C=C/C=C/Sc1ccccc1)OCc1ccccc1
inactive: [17] 20.3 µM | [1] 52.1 µM | [2] 20.1 µM | [3] 24.5 µM | [4] 21.2 µM | [5] 15.4 µM | [7] 22.7 µM | [8] 16.1 µM | [9] 21.7 µM | [10] 18.7 µM | [11] 20.1 µM | [12] 19.6 µM | [13] > 10 µM | [14] 33.8 µM | [15] 19.3 µM | [16] 18.7 µM

Cc1oc2c(C)c3oc(=O)cc(C)c3cc2c1CNC(=O)[C@@H]1OCCOCCOCCOCCOCCOC1C(=O)O (some centres undefined)
inactive: [17] > 100 µM | [1] > 100 µM | [2] > 100 µM | [3] > 100 µM | [4] > 100 µM | [5] > 100 µM | [6] > 100 µM | [7] > 100 µM | [8] > 100 µM | [9] > 100 µM | [10] > 100 µM | [11] > 100 µM | [12] > 100 µM | [14] > 100 µM | [15] > 100 µM | [16] > 100 µM

Cn1cc(NC(=O)c2cc(NC(=O)CCCCCCC(=O)Nc3cc(C(=O)Nc4cc(C(=O)NCCC(=N)N)n(C)c4)n(C)c3)cn2C)cc1C(=O)NCCC(=N)N
inactive: [17] 11 µM | [1] > 100 µM | [2] 10.7 µM | [4] 3.8 µM | [6] 2.67 µM | [7] 3.91 µM | [9] 36.1 µM | [11] 17 µM | [12] 25.9 µM | [14] > 100 µM | [15] 17.3 µM | [16] 2.2 µM

COc1ccc(-c2cc(C(=O)Nc3ccc(C)c(C)c3)nc(NC#N)n2)cc1
inactive: [17] > 100 µM | [1] > 100 µM | [4] > 100 µM | [5] > 100 µM | [6] > 100 µM | [7] > 100 µM | [8] > 100 µM | [9] > 100 µM | [10] > 100 µM | [11] > 100 µM | [13] > 100 µM | [14] > 100 µM | [15] > 100 µM | [16] > 100 µM

Cc1ccc(C(=O)O)cc1NC(=O)c1cc(/C=C/c2ccccc2)[nH]c(=S)n1
inactive: [17] > 100 µM | [1] > 64.7 µM | [2] > 100 µM | [3] > 100 µM | [4] > 100 µM | [5] > 100 µM | [6] > 100 µM | [7] > 100 µM | [8] > 100 µM | [9] > 100 µM | [10] > 44.1 µM | [11] > 100 µM | [12] > 100 µM | [14] > 100 µM | [15] > 100 µM | [16] > 100 µM

O=[N+]([O-])c1ccc(-c2noc(-c3ccccc3)c2C2=NCCN2)cc1
inactive: [17] 40.3 µM | [1] > 100 µM | [2] > 100 µM | [3] 29.9 µM | [4] > 100 µM | [5] > 100 µM | [6] > 100 µM | [8] 20.5 µM | [9] 77.6 µM | [10] > 100 µM | [11] 38.6 µM | [12] 44.7 µM | [13] > 100 µM | [15] 84.5 µM | [16] 41.2 µM

CN(CCO)c1nc(=O)c2c(n1C1OC(CO)C(O)C(O)C1O)CCCC2 (centres undefined)
inactive: [17] > 100 µM | [1] > 100 µM | [2] > 100 µM | [3] > 100 µM | [4] > 100 µM | [5] > 100 µM | [6] > 100 µM | [7] > 100 µM | [8] > 100 µM | [10] > 100 µM | [11] > 100 µM | [12] > 100 µM | [13] > 100 µM | [14] > 100 µM | [15] > 100 µM | [16] > 100 µM

CC(=O)OC1OC(c2ccoc2)C[C@@]12C1CCC3O[C@]3(C)[C@]1(C)[C@H](OC(C)=O)[C@H](OC(C)=O)[C@H]2C (some centres undefined)
inactive: [17] > 37.5 µM | [1] 11.2 µM | [2] > 37.5 µM | [3] > 37.5 µM | [4] > 37.5 µM | [5] 18.5 µM | [6] > 37.5 µM | [7] 30.3 µM | [9] > 37.5 µM | [11] > 37.5 µM | [12] > 37.5 µM | [13] > 37.5 µM | [14] > 37.5 µM | [15] > 37.5 µM | [16] > 37.5 µM

N#Cc1cccc(-n2[nH]c(=O)ccc2=O)c1
inactive: [17] > 100 µM | [1] > 100 µM | [2] > 100 µM | [3] > 100 µM | [4] > 100 µM | [5] > 100 µM | [6] > 100 µM | [7] > 100 µM | [8] > 100 µM | [9] > 100 µM | [10] > 100 µM | [12] > 100 µM | [13] > 100 µM | [15] > 100 µM | [16] > 100 µM

COCN1C(=O)C2CC(/C=C/C(N)=O)=CN2C(=O)c2ccccc21 (centres undefined)
inactive: [1] > 100 µM | [2] > 100 µM | [3] > 100 µM | [4] > 100 µM | [5] > 100 µM | [7] > 100 µM | [8] > 100 µM | [9] > 100 µM | [10] > 100 µM | [11] > 100 µM | [12] > 100 µM | [14] > 100 µM | [15] > 100 µM

CS(=O)(=O)ON1C(=O)c2ccc(N)cc2C1=O
inactive: [1] 16 µM | [2] > 100 µM | [3] > 55.5 µM | [4] > 100 µM | [5] 21.4 µM | [6] > 100 µM | [7] > 100 µM | [8] 19.4 µM | [9] > 100 µM | [10] 23.8 µM | [11] > 40.9 µM | [12] > 100 µM | [13] > 100 µM | [14] > 100 µM | [15] > 100 µM | [16] > 31.6 µM

COc1cc2nncc(Sc3cnnc4ccccc34)c2cc1OC
inactive: [17] 11.8 µM | [1] 17.5 µM | [2] 17.6 µM | [3] 34.3 µM | [4] 21.9 µM | [5] 22.2 µM | [6] 17.2 µM | [7] > 10 µM | [8] 12.9 µM | [9] 10.1 µM | [10] 16.9 µM | [12] 26.9 µM | [13] 16.7 µM | [14] 14.7 µM | [15] 25.5 µM | [16] 23.1 µM

CCN(CC)CCOC(c1ccccc1)c1ccccc1.CCOC(=O)Nc1ccc(S(=O)(=O)NCCCl)cc1.CCOC(=O)Nc1ccc(S(=O)(=O)NCCCl)cc1.Nc1ccc(C(=O)O)c(O)c1
inactive: [17] > 100 µM | [1] > 100 µM | [2] > 100 µM | [3] > 100 µM | [4] > 100 µM | [5] > 100 µM | [6] > 100 µM | [7] > 100 µM | [8] > 100 µM | [9] > 100 µM | [11] > 100 µM | [12] > 100 µM | [13] > 100 µM | [14] > 100 µM | [15] > 100 µM | [16] > 100 µM
